In US10508077B2 (FORMA Therapeutics, Inc., priority 2015, dated 2019):

molecular target: T1, Full length human recombinant HDAC8 protein (Homo sapiens, UniProt Q9BY41); assay: In vitro histone deacetylase assay: enzymatic HDAC8 assay, electrophoretic mobility shift; assay type: biochemical; details: substrate RHKK(Ac)-NH2, 1 nM enzyme, compounds listed under IC50 range headings
T1 construct: Full length human recombinant HDAC8 protein was expressed in baculoviral system; made in house
T1 sequence (Q9BY41 1-377): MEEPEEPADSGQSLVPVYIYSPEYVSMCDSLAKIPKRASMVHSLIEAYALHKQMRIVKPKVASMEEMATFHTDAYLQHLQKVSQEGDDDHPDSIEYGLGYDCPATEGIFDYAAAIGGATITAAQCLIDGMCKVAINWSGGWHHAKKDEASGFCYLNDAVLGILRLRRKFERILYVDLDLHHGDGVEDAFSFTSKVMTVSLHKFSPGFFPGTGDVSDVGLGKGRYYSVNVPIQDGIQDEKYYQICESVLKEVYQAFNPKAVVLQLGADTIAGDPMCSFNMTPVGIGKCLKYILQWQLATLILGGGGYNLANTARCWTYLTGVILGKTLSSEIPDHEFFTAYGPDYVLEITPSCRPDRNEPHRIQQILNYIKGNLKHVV
Experimental: The enzymatic HDAC8 assay was performed using electrophoretic mobility shift assay. Full length human recombinant HDAC8 protein was expressed in baculoviral system and purified by affinity chromatography. The enzymatic reactions were assembled in 384 well plates in a total volume of 25 μL in a reaction buffer composing: 100 mM HEPES, pH7.5, 25 mM KC, 0.1% bovine serum albumin, 0.01% Triton X-100, 1% DMSO (from compounds) 2 μM of the fluorescently labeled peptide substrate and enzyme. The enzyme was added at a final concentration of 1 nM. The peptide substrate RHKK(Ac)-NH2 was used. The compounds were tested at 12 concentrations spaced by 3× dilution intervals. Negative control samples (0%-inhibition in the absence of inhibitor) and positive control samples (100%-inhibition) were assembled in replicates of four in each assay plate. The reactions were incubated at 25° C. and quenched by the addition of 45 μL of termination buffer (100 mM HEPES, pH 7.5, 0.01% Triton X-100, 0.05% SDS).
The terminated assay plates were analyzed on LabChip® 3000 microfluidic electrophoresis instrument (Perkin Elmer/Caliper Life Sciences). The fluorescence intensity of the electrophoretically separated de-acetylated product and substrate peptide was measured. Activity in each sample was determined as the product to sum ratio (PSR): P/(S+P), where P is the peak height of the product peptide and S is the peak height of the substrate peptide. Percent inhibition (Pinh) is determined using the following equation: Pinh=(PSR0%−PSRinh)/(PSR0%−PSR100%)*100, where PSRinh is the product sum ratio in the presence of inhibitor, PSR0% is the average product sum ration in the absence of inhibitor and PSR 100% is the average product sum ratio in 100%-inhibition control samples. The IC50 values of inhibitors were determined by fitting the %-inhibition curves with 4 parameter dose-response model using XLfit 4 software. Ranges of IC50 values for compounds of the invention are disclosed in Table 26.

IC50 | Compound
1 to 10 µM | O=C(/C=C/c1ccccc1N1CCN(C(=O)C2(c3ccccc3)CC2)CC1)NO [Example I-36, (E)-N-hydroxy-3-(2-(4-(1-phenylcyclopropane-1-carbonyl)piperazin-1-yl)phenyl)acrylamide]
1 to 10 µM | O=C(/C=C/c1ccccc1N1CCN(C(=O)C2(c3ccccc3)CCC2)CC1)NO [Example I-37, (E)-N-hydroxy-3-(2-(4-(1-phenylcyclobutane-1-carbonyl)piperazin-1-yl)phenyl)acrylamide]
1 to 10 µM | O=C(/C=C/c1ccccc1NC(=O)c1nccn1-c1ccccc1C(F)(F)F)NO [Example I-38, (E)-N-(2-(3-(hydroxyamino)-3-oxoprop-1-en-1-yl)phenyl)-1-(2-(trifluoromethyl)phenyl)-1H-imidazole-2-carboxamide]
< 1 µM | O=C(/C=C/c1ccccc1NCc1nc2ccccc2[nH]1)NO [Example I-39, (E)-3-(2-(((1H-benzo[d]imidazol-2-yl)methyl)amino)phenyl)-N-hydroxyacrylamide]
< 1 µM | CC(=O)Nc1cccc(C(=O)Nc2ccccc2/C=C/C(=O)NO)c1 [Example I-42, (E)-3-acetamido-N-(2-(3-(hydroxyamino)-3-oxoprop-1-en-1-yl)phenyl)benazmide]
< 1 µM | O=C(/C=C/c1ccccc1NCc1cccc(C(F)(F)F)c1)NO [Example I-46, (E)-N-hydroxy-3-(2-((3-(trifluoromethyl)benzyl)amino)phenyl)acrylamide]
< 1 µM | CC(C)(C)OC(=O)N1CCC2(CCC(C(=O)Nc3ccccc3/C=C/C(=O)NO)CC2)CC1 [Example I-47, tert-butyl-(E)-9-((2-(3-(hydroxyamino)-3-oxoprop-1-en-1-yl)phenyl)carbamoyl)-3-azaspiro[5.4]undecane-3-carboxylate]
< 1 µM | CC(C)(C)OC(=O)N1CCC2(CC1)CCN(c1ccccc1/C=C/C(=O)NO)CC2 [Example I-50, tert-butyl-(E)-9-(2-(3-(hydroxyamino)-3-oxoprop-1-en-1-yl)phenyl)-3,9-diazaspiro[5.5]undecane-3-carboxylate]
< 1 µM | N#Cc1ccc2nc(CNc3ccccc3/C=C/C(=O)NO)[nH]c2c1 [Example I-51]
< 1 µM | O=C(/C=C/c1ccccc1N1CCC2(CCNCC2)CC1)NO [Example I-52, (E)-3-(2-(3,9-diazaspiro[5.5]undecan-3-yl)phenyl)-N-hydroxyacrylamide 2,2,2-trifluoroacetate]
< 1 µM | NC(=O)CCc1cccc(CNc2ccccc2/C=C/C(=O)NO)c1 [Example I-53, (E)-3-(2-((3-(3-amino-3-oxopropyl)benzyl)amino)phenyl)-N-hydroxyacrylamide]
< 1 µM | O=C(/C=C/c1ccccc1NCC1CCCCC1)NO [Example I-55, (E)-3-(2-((cyclohexylmethyl)amino)phenyl)-N-hydroxyacrylamide]
< 1 µM | O=C(/C=C/c1ccccc1NC(=O)C1CCCCC1)NO [Example I-56, (E)-N-(2-(3-(hydroxyamino)-3-oxoprop-1-en-1-yl)phenyl)cyclohexanecarboxamide]
< 1 µM | O=C(/C=C/c1ccccc1N1CCCCC1)NO [Example I-57, (E)-N-hydroxy-3-(2-(piperidin-1-yl)phenyl)acrylamide]
< 1 µM | CC(C)(C)OC(=O)N1CCN(c2ccccc2/C=C/C(=O)NO)CC1 [Example I-58, tert-butyl (E)-4-(2-(3-(hydroxyamino)-3-oxoprop-1-en-1-yl)phenyl)piperazine-1-carboxylate]
< 1 µM | O=C(/C=C/c1ccccc1N1CCNCC1)NO [Example I-59, (E)-N-hydroxy-3-(2-(piperazin-1-yl)phenyl)acrylamide 2,2,2-trifluoroacetate]
< 1 µM | CC(C)(C)OC(=O)NC1CCN(c2ccccc2/C=C/C(=O)NO)CC1 [Example I-60, tert-butyl (E)-(1-(2-(3-(hydroxyamino)-3-oxoprop-1-en-1-yl)phenyl)piperidin-4-yl)carbamate]
